Results on 27 compounds are retold here after patent publication EP4813381A1, “PHARMACEUTICAL USE OF GUAIANE SESQUITERPENE DERIVATIVE” (Nanjing University Of Chinese Medicine, priority 2023, dated 2025).

The structures appear in SMILES notation.

The assay deals with MDSCs and T cells. Kind of assay: T cell proliferation in a co-culture model of MDSCs and T cells (flow cytometry). Particulars: MDSCs treated with 1 µM compound for 12 h, 48 h co-culture with T cells (1:1), compared to the control group. The format is cell-based, mice. As for the experimental part:
Under sterile conditions, the tibia was removed, both ends of the bone were cut, and bone marrow was repeatedly flushed into a 15 mL centrifuge tube using a 1 mL syringe filled with culture medium. Centrifuge at 1600 rpm for 5 min to collect bone marrow cells. […] The spleen cell suspension was then transferred into a 15 mL centrifuge tube. Centrifuge at 1600 rpm for 5 min to collect T cells. Wash twice with 1×PBS. Resuspend the centrifuged T cells in 1 mL PBS and add 1 mL of 10 µM CFDA-SE solution. Incubate at room temperature for 8 min. […] After drug administration, collect MDSC cells into centrifuge tubes. Centrifuge at 1600 rpm for 5 min, remove supernatant, resuspend in 1 mL fresh medium, and plate. Add 1 mL stimulated activated T cells (1:1 ratio) for 48 h co-culture. After incubation, collect cells into centrifuge tubes, wash twice with PBS, and incubate with Fc antibody at room temperature in the dark for 10 min. Add CD3-labeled flow cytometry antibody and incubate at 4 °C in the dark for 30 min. After incubation, wash cells with PBS, resuspend in 300 µL PBS, and analyze by flow cytometry.
On to `C=C1C(=O)O[C@H]2[C@H]1CCC(C)=C1CC[C@@](C)(OC(=O)N3CCOCC3)[C@@H]12` [compound 87], for which the “T-cell proliferation rate (%)” value is recorded as “+++ (T-cell proliferation rate >40% compared to the control group)”.

On to `C=C1C(=O)O[C@H]2[C@H]1CCC(C)=C1CC[C@@](C)(OC(=O)NCCO)[C@@H]12` [compound 71], for which the “T-cell proliferation rate (%)” value was “+++ (T-cell proliferation rate >40% compared to the control group)”. `CC1=C2[C@H]3OC(=O)[C@@H](CN(C)C)[C@@H]3CC[C@@]3(C)C[C@@]23CC1` [compound 62]: the “T-cell proliferation rate (%)” value is recorded as “+ (T-cell proliferation rate within the 0-20% range compared to the control group)”. Under `C=C1C(=O)O[C@H]2[C@H]1CCC(C)=C1CC[C@@](C)(OC(=O)N(C)C)[C@@H]12` [compound 80] stands “++ (T-cell proliferation rate within the 20-40% range compared to the control group)”; under `C=C1C(=O)O[C@H]2[C@H]1CCC(C)=C1CC[C@@](C)(OC(=O)N3CCC(N4CCOCC4)CC3)[C@@H]12` [compound 94], “++ (T-cell proliferation rate within the 20-40% range compared to the control group)”. Regarding `CC1=C2CC[C@@](C)(OC(=O)N3CCCCC3)[C@@H]2[C@H]2OC(=O)[C@@H](CN3CCCC3)[C@@H]2CC1` [compound 96], the “T-cell proliferation rate (%)” value is on record as “+ (T-cell proliferation rate within the 0-20% range compared to the control group)”. As to `C=C1C(=O)O[C@H]2[C@H]1CCC(C)=C1CC[C@@](C)(OC(=O)NC(CC)CC)[C@@H]12` [compound 69], the “T-cell proliferation rate (%)” value is “++ (T-cell proliferation rate within the 20-40% range compared to the control group)”.

With `C=C1C(=O)O[C@H]2[C@H]1CCC(C)=C1CC[C@@](C)(OC(=O)NCCCN3CCN(C)CC3)[C@@H]12` [compound 93], the “T-cell proliferation rate (%)” value is recorded as “++ (T-cell proliferation rate within the 20-40% range compared to the control group)”.

As to `C=C1C(=O)O[C@H]2[C@H]1CCC(C)=C1CC[C@@](C)(OC(=O)N3CCN(C)CC3)[C@@H]12` [compound 85], the “T-cell proliferation rate (%)” value is “+ (T-cell proliferation rate within the 0-20% range compared to the control group)”. Under `C=C1C(=O)O[C@H]2[C@H]1CCC(C)=C1CC[C@@](C)(OC(=O)NCCN3CCN(C)CC3)[C@@H]12` [compound 95] stands “++ (T-cell proliferation rate within the 20-40% range compared to the control group)”; under `C=C1C(=O)O[C@H]2[C@H]1CCC(C)=C1CC[C@@](C)(OC(=O)NCCOCCO)[C@@H]12` [compound 76], “++ (T-cell proliferation rate within the 20-40% range compared to the control group)”. Under `C=C1C(=O)O[C@H]2[C@H]1CCC(C)=C1CC[C@@](C)(OC(=O)NCCCC)[C@@H]12` [compound 67] stands “++ (T-cell proliferation rate within the 20-40% range compared to the control group)”; under `C=C1C(=O)O[C@H]2[C@H]1CCC(C)=C1CC[C@@](C)(OC(=O)NC)[C@@H]12` [compound 64], “+++ (T-cell proliferation rate >40% compared to the control group)”; under `C=C1C(=O)O[C@H]2[C@H]1CCC(C)=C1CC[C@@](C)(OC(=O)N3CCCC3)[C@@H]12` [compound 82], “+ (T-cell proliferation rate within the 0-20% range compared to the control group)”. `C=C1C(=O)O[C@H]2[C@H]1CCC(C)=C1CC[C@@](C)(OC(=O)NCCCO)[C@@H]12` [compound 72]: the “T-cell proliferation rate (%)” value is recorded as “++ (T-cell proliferation rate within the 20-40% range compared to the control group)”. The same measure for `C=C1C(=O)O[C@H]2[C@H]1CCC(C)=C1CC[C@@](C)(OC(=O)NC(C)C)[C@@H]12` [compound 68]: “+ (T-cell proliferation rate within the 0-20% range compared to the control group)”; for `C=C1C(=O)O[C@H]2[C@H]1CCC(C)=C1CC[C@@](C)(OC(=O)NCc3ccccc3)[C@@H]12` [compound 79]: “++ (T-cell proliferation rate within the 20-40% range compared to the control group)”; for `C=C1C(=O)O[C@H]2[C@H]1CCC(C)=C1CC[C@@](C)(OC(=O)NCCCOC)[C@@H]12` [compound 75]: “++ (T-cell proliferation rate within the 20-40% range compared to the control group)”.

Take `C=C1C(=O)O[C@H]2[C@H]1CCC(C)=C1CC[C@@](C)(OC(=O)N(CC)CCC)[C@@H]12` [compound 91]: the “T-cell proliferation rate (%)” value is reported as “++ (T-cell proliferation rate within the 20-40% range compared to the control group)”. The same measure for `C=C1C(=O)O[C@H]2[C@H]1CCC(C)=C1CC[C@@](C)(OC(=O)NCCOC)[C@@H]12` [compound 74]: “+++ (T-cell proliferation rate >40% compared to the control group)”; for `C=C1C(=O)O[C@H]2[C@H]1CCC(C)=C1CC[C@@](C)(OC(=O)NCC)[C@@H]12` [compound 65]: “+ (T-cell proliferation rate within the 0-20% range compared to the control group)”.

Regarding `C=C1C(=O)O[C@H]2[C@H]1CCC(C)=C1CC[C@@](C)(OC(=O)N(C)CCC)[C@@H]12` [compound 90], the “T-cell proliferation rate (%)” value is listed as “++ (T-cell proliferation rate within the 20-40% range compared to the control group)”. Under `C=C1C(=O)O[C@H]2[C@H]1CCC(C)=C1CC[C@@](C)(OC(=O)NCC(F)F)[C@@H]12` [compound 89] stands “++ (T-cell proliferation rate within the 20-40% range compared to the control group)”; under `C=C1C(=O)O[C@H]2[C@H]1CCC(C)=C1CC[C@@](C)(OC(=O)NCCC)[C@@H]12` [compound 66], “+ (T-cell proliferation rate within the 0-20% range compared to the control group)”; under `C=C1C(=O)O[C@H]2[C@H]1CCC(C)=C1CC[C@@](C)(OC(=O)NCCCN3CCOCC3)[C@@H]12` [compound 92], “++ (T-cell proliferation rate within the 20-40% range compared to the control group)”. The same measure for `CC1CCN(C[C@@H]2C(=O)O[C@H]3[C@H]2CC[C@@]2(C)C[C@]24CC[C@@](C)(O)[C@H]34)CC1` [compound 43]: “+ (T-cell proliferation rate within the 0-20% range compared to the control group)”; for `CN(C)C[C@@H]1C(=O)O[C@H]2[C@H]1CC[C@@]1(C)C[C@]13C[C@@H](O)[C@@](C)(O)[C@H]23` [compound 60]: “+ (T-cell proliferation rate within the 0-20% range compared to the control group)”.
